From a melting point compilation (Tetko et al.; mined from patent text by program, amines drawn as free bases though some values may be those of a salt)

SMILES	melting point [°C]
C=C[C@@]12CCC[C@@H](C#N)[C@@H]1C(=O)CC2	41 to 42
Cc1cccc(Oc2c[nH]c(=O)[nH]c2=O)c1	291 to 295
[N-]=[N+]=NC(C(=O)O)C1c2ccccc2C=Cc2ccccc21 (configuration not stated)	119 to 120
CC(=O)C(=CN(C)C)c1ccccc1	66
COC(C)(C)C#Cc1ncn2c1CN(C)C(=O)c1ccccc1-2	136 to 137
Cc1noc(NS(=O)(=O)c2ccccc2-c2ccc(-c3ncco3)cc2Cc2ncco2)c1C	88 to 95
CC(O)CNc1nc(C2C(=O)Nc3ccc(Br)cc32)c2cn(C)nc2n1 (configuration not stated)	298 to 301
NS(=O)(=O)c1ncccc1NC=O	183
CCCCNc1cc(C=NO)cc(S(N)(=O)=O)c1Oc1ccccc1	226 to 228
CSc1ccc(/C=C/c2ccc(C(=O)O)cn2)cc1	250 to 253
C1=C(c2ccccc2)CCN(CC2CCC=C(c3ccccc3)C2)C1 (configuration not stated)	94 to 100
CC(C)NCC(O)COc1cccnc1 (configuration not stated)	84 to 87
CC1(C)CC(=O)c2c(SCc3ccccc3)sc(-c3cc[nH]n3)c2C1	215 to 218
CCCCNC(=O)Nc1ncc2cc(-c3c(Cl)cccc3Cl)c(NC(=O)NCCCC)nc2n1	200 to 202
Cc1nc2cc(NC(=O)c3cc4cccnc4n3Cc3cccc(F)c3)ccc2n1C	242 to 244
O=C(C=Cc1c(Cl)cccc1Cl)c1ccccc1	83

SMILES	melting point [°C]
CCC12CCC3C4CCC(=O)C=C4CCC3C1CCC2(O)C(C)O (configuration not stated)	159 to 164
Cc1cc2c(cc1O)C(C)(C)CC(C)(c1cc(O)c(C)cc1O)O2 (configuration not stated)	190
O=C(Nc1ccc2c(c1)CCOC2)OCc1ccccc1	142 to 145
OC1(c2ccc(-c3cccnc3)cc2)CN2CCC1CC2 (configuration not stated)	172 to 173
Cc1oc(-c2ccccc2)nc1CNS(=O)(=O)c1ccc(CC2SC(=O)NC2=O)cc1 (configuration not stated)	120 to 122
CC(C)N(O)C(=O)Nc1ccc(S(C)=O)cc1 (configuration not stated)	136
Cc1nc(-c2ccc(OC(C)C)cc2)sc1C(=O)O	186 to 188
CCC(O)c1cc2cc(O)c(Cl)c(Cl)c2s1 (configuration not stated)	145 to 146
O=P(O)(O)CSc1nc2cc(Cl)c(C#Cc3ccccc3)cc2[nH]1	210 to 215
CCCCNC(=O)C(O[Si](C)(C)C(C)(C)C)c1ccccc1O (configuration not stated)	72 to 74
CC(O)CN1C(=O)N(CC(C)O)C(C)(C)C1=O (configuration not stated)	65 to 67
Cc1ccc(C)n1-c1ccc(C(C)NO)cc1 (configuration not stated)	109 to 111
Cc1cc(C)n(-c2nc(Nc3ccc(Cl)cc3)cc(N3CCOCC3)n2)n1	186 to 187
COC(=O)C1C=CCN2C(=O)C(CCSC(C)=O)(Cc3ccccc3)C(=O)N12 (configuration not stated)	161 to 162
Cc1cc(C(F)(F)F)nn1CC(=O)N1CCC(c2csc(NC(=O)Cc3c(F)cccc3Cl)n2)CC1	249 to 251

Results, then the molecule that gave them:

melting point [°C]	SMILES
180 to 184	O=S(=O)(c1ccccc1)N1CCC(C(c2ccc(F)cc2)c2ccc(F)cc2)CC1
176	CCC(=CC(N)C(=O)O)CP(=O)(O)O (configuration not stated)
152 to 154	Nc1ccc(Oc2cccc(Oc3ccc(N)cc3)n2)cc1
170 to 173	CC1(C)CN(C2CC3(C)C(CCC4C5CCC(C#N)C5(C)CCC43)CC2O)CCO1 (configuration not stated)
92 to 94	CC(C)CCCC(C)C1CCC2C3CC=C4CC(N)CCC4(C)C3CCC12C (configuration not stated)
201 to 202	O=Cc1ccc2cc3ccccc3cc2c1
175 to 177	CC(C)(C)OC(=O)NN=C1C2CC3CC(C2)CC1C3
140	O=[N+]([O-])c1ccccc1NOS(=O)(=O)c1ccccc1
161 to 162	CC(CCCO[Si](C)(C)C(C)(C)C)C1CCC2C3CC=C4C(C)(C)C(O[Si](C)(C)C(C)(C)C)CCC4(C)C3CCC12C (configuration not stated)
185 to 187	CN[C@@H]1CN(c2nc3c(cc2F)c(=O)c(C(=O)O)cn3C(C)(C)C)[C@H]1C (relative stereo)
240 to 242	O=C(NNc1nc(C(F)(F)F)nc(-c2ccncc2)c1-c1ccc(F)cc1)C(F)(F)F
104 to 106	CCOC(=O)c1cc(=O)cc(-c2ccccc2Cl)o1
166 to 168	O=C(NC1CCCC1)c1ccc(-c2ccc3nnn(Cc4ccc5ncccc5c4)c3n2)cc1F
168 to 169	O=C(c1ccccc1)[C@]1([N+](=O)[O-])[C@H](c2ccccc2)[C@H]2C[C@H](O)[C@@H]1C2 (relative stereo)
74 to 76	Cc1ccc(-c2c(CO)n(CC(C)C)c(=O)c3ccc(OCc4ccccc4)cc23)cc1
138 to 141	CN(CCc1ccc([N+](=O)[O-])cc1)C1Cc2ccc([N+](=O)[O-])cc2C1 (configuration not stated)
86 to 88	CC(=O)N(C)C(Cc1ccncc1)C(=O)O (configuration not stated)
178 to 180	COC(=O)c1cc(NN=C(c2ccccc2)c2ccccc2)c(C#N)s1
103	COc1ccc2cc(CCl)c(CCl)cc2c1Cl
162 to 164	CSc1ncc(Oc2cnccc2C)c(=O)[nH]1
142 to 143	COCC1CN(c2ccc(C3CCC(O)CC3)cn2)C(=O)O1 (racemic)

melting point [°C]	SMILES
265 to 270	O=C(O)c1cn(CCc2ccc(O)cc2)c2cc(C3CC3)nn2c1=O
205 to 211	CCOC(=O)c1c(-c2ccc(-c3ccccn3)cc2)n(C)n(-c2ccc(C#N)cc2)c1=O
169 to 170	CCCSc1ncc(CCC(=O)O)n1Cc1ccccc1Cl
186 to 188	Cc1ccc(-c2nn(-c3ccccc3)c(N)c2C#N)cc1
207 to 208	O=S(=O)(Cc1ccccc1)N1CCC(c2ccc(O)cc2O)CC1
130 to 131	CN(C(=O)C(F)(F)F)C1Cc2ccc(C(=O)CCl)cc2C1 (configuration not stated)
271 to 272	Oc1c2c(nc3c(-c4cc(-c5ccccc5)cs4)cnn13)CCCC2
148 to 150	CC(C)=CC(=O)OC(COc1ccc(C(=O)c2ccccc2)c(O)c1)COc1ccc(C(=O)c2ccccc2)c(O)c1
228 to 230	COc1ccc(Nc2cccc3c2C(=O)N(C2CCC(=O)NC2=O)C3=O)cc1 (configuration not stated)
209 to 210	O=C1CCCC(c2ccc(Cl)cc2)N1c1ccc(O)cc1 (configuration not stated)
154	CCCC1CCC(C2CCC(C3CCC(C(=O)OC)C(=O)C3)CC2)CC1 (configuration not stated)
> 320	O=C(CCl)c1ccc2cc(O)c(O)cc2c1
85 to 87	O=C(CCl)N1CCC(Cc2ccc(F)cc2)CC1
107 to 112	CC1C(c2ncc(Cl)cc2F)=NN(C)CS1=S (configuration not stated)
181 to 184	OCC1(c2c[nH]cn2)Cc2ccccc2C1
> 270	CN(C)c1cc(-c2c[nH]c(N)n2)ccn1
68 to 70	COC(=O)CN(NC(N)=O)c1cccc(C)c1
145	COc1cc2c(cc1Nc1ncc(Cl)c(Nc3ccc(N(C)C)cc3OC)n1)CCN(CC(=O)N1CCN(C)CC1)CC2
83 to 84	CCc1c(OC)c(Cl)cc(C(N)=O)c1OC
208 to 214	Cc1ccc(-n2c3ccc(C)cc3c3cc(-n4ccnc4-c4nccn4-c4ccc5c(c4)c4cc(C)ccc4n5-c4ccc(C)cc4)ccc32)cc1
